{"source": "paper PMC12056728", "about": "(RSC Advances, 2025)", "data": [{"target": "α-glucosidase (E.C.3.2.1.20) (Saccharomyces cerevisiae, UniProt P53341)", "sequence (P53341 whole entry)": "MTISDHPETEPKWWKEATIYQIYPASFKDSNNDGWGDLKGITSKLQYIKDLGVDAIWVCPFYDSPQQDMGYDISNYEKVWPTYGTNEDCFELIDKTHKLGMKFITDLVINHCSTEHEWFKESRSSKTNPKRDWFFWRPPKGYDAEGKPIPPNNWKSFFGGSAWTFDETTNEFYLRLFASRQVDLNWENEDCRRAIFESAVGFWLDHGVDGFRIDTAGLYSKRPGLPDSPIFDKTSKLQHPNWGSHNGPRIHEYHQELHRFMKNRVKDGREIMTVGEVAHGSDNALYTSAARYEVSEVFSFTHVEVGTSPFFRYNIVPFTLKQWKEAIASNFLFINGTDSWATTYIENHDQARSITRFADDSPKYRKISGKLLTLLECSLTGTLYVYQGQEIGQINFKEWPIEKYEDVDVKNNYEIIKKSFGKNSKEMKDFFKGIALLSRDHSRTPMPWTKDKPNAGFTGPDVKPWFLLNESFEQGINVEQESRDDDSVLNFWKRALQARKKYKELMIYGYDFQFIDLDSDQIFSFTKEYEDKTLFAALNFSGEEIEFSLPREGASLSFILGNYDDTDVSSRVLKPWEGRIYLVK", "assay": "α-glucosidase inhibition assay", "assay_type": "biochemical", "details": "IC50 could not be determined", "values": [{"smiles": "O=C(NN=C1C(=O)N(CCOc2ccc(F)cc2)c2ccccc21)c1cccnc1", "note": "[1j, N′-(1-(2-(4-Fluorophenoxy)ethyl)-2-oxoindolin-3-ylidene)nicotinohydrazide]", "α-glucosidase inhibitory activity (in words)": "complete loss of inhibitory activity"}, {"smiles": "O=C(NN=C1C(=O)N(CCOc2ccc(F)cc2)c2ccccc21)c1ccncc1", "note": "[1k, N′-(1-(2-(4-Fluorophenoxy)ethyl)-2-oxoindolin-3-ylidene)isonicotinohydrazide]", "α-glucosidase inhibitory activity (in words)": "loss of inhibitory activity"}]}, {"target": "α-glucosidase (E.C.3.2.1.20) (Saccharomyces cerevisiae, UniProt P53341)", "assay": "α-glucosidase inhibition assay", "assay_type": "biochemical", "details": "read-out: Percent inhibition (0.5 mM)", "units": {"inhibition at 500 µM": "%"}, "values": [{"smiles": "O=C(NN=C1C(=O)N(CCOc2ccccc2)c2ccccc21)c1cccnc1", "note": "[1a, N′-(2-Oxo-1-(2-phenoxyethyl)indolin-3-ylidene)nicotinohydrazide]", "inhibition at 500 µM": 75.6}, {"smiles": "O=C(NN=C1C(=O)N(CCOc2ccccc2)c2ccccc21)c1ccncc1", "note": "[1b, N′-(2-Oxo-1-(2-phenoxyethyl)indolin-3-ylidene)isonicotinohydrazide]", "inhibition at 500 µM": 94.1}, {"smiles": "O=C(NN=C1C(=O)N(CCOc2ccccc2)c2ccccc21)c1ccc(Br)cc1", "note": "[1c, 4-Bromo-N′-(2-oxo-1-(2-phenoxyethyl)indolin-3-ylidene)benzohydrazide]", "inhibition at 500 µM": 90.6}, {"smiles": "O=C(NN=C1C(=O)N(CCOc2ccc(Cl)cc2)c2ccccc21)c1cccnc1", "note": "[1d, N′-(1-(2-(4-Chlorophenoxy)ethyl)-2-oxoindolin-3-ylidene)nicotinohydrazide]", "inhibition at 500 µM": 92.9}, {"smiles": "O=C(NN=C1C(=O)N(CCOc2ccc(Cl)cc2)c2ccccc21)c1ccncc1", "note": "[1e, N′-(1-(2-(4-Chlorophenoxy)ethyl)-2-oxoindolin-3ylidene)isonicotinohydrazide]", "inhibition at 500 µM": 94.7}, {"smiles": "O=C(NN=C1C(=O)N(CCOc2ccc(Cl)cc2)c2ccccc21)c1ccc(Br)cc1", "note": "[1f, 4-Bromo-N′-(1-(2-(4-chlorophenoxy)ethyl)-2-oxoindolin3ylidene)benzohydrazide]", "inhibition at 500 µM": 94.5}, {"smiles": "O=C(NN=C1C(=O)N(CCOc2ccc(Br)cc2)c2ccccc21)c1cccnc1", "note": "[1g, N′-(1-(2-(4-Bromophenoxy)ethyl)-2-oxoindolin-3-ylidene)nicotinohydrazide]", "inhibition at 500 µM": 92.1}, {"smiles": "O=C(NN=C1C(=O)N(CCOc2ccc(Br)cc2)c2ccccc21)c1ccncc1", "note": "[1h, N′-(1-(2-(4-Bromophenoxy)ethyl)-2-oxoindolin-3-ylidene)isonicotinohydrazide]", "inhibition at 500 µM": 89.9}, {"smiles": "O=C(NN=C1C(=O)N(CCOc2ccc(Br)cc2)c2ccccc21)c1ccc(Br)cc1", "note": "[1i, 4-Bromo-N′-(1-(2-(4-bromophenoxy)ethyl)-2-oxoindolin-3-ylidene)benzohydrazide]", "inhibition at 500 µM": 94.9}, {"smiles": "O=C(NN=C1C(=O)N(CCOc2ccc(F)cc2)c2ccccc21)c1cccnc1", "note": "[1j, N′-(1-(2-(4-Fluorophenoxy)ethyl)-2-oxoindolin-3-ylidene)nicotinohydrazide]", "inhibition at 500 µM": 36}, {"smiles": "O=C(NN=C1C(=O)N(CCOc2ccc(F)cc2)c2ccccc21)c1ccncc1", "note": "[1k, N′-(1-(2-(4-Fluorophenoxy)ethyl)-2-oxoindolin-3-ylidene)isonicotinohydrazide]", "inhibition at 500 µM": 39.3}, {"smiles": "O=C(NN=C1C(=O)N(CCOc2ccc(F)cc2)c2ccccc21)c1ccc(Br)cc1", "note": "[1l, 4-Bromo-N′-(1-(2-(4-fluorophenoxy)ethyl)-2-oxoindolin-3-ylidene)benzohydrazide]", "inhibition at 500 µM": 93.1}]}]}
